From patent publication US11938122B2, “5-[[4-[2-[5-(1-hydroxyethyl)pyridin-2-yl]ethoxy]phenyl]methyl]-1,3- thiazolidine-2,4-dione for treating nonalcoholic fatty liver disease” (Minoryx Therapeutics S.L., priority 2016, dated 2024)

What was measured:
Format in all cases: in vitro ADME
CYP2A6 = target: T1, CYP2A6 (Homo sapiens, UniProt P11509); experiment: CYP inhibition, cocktail incubation, pooled human liver microsomes; conditions: reaction 7OH-COU
T1 construct: in incubations with a pool of human liver microsomes; from tissue; host or cells: pooled human liver microsomes
T1 sequence (P11509 1-494): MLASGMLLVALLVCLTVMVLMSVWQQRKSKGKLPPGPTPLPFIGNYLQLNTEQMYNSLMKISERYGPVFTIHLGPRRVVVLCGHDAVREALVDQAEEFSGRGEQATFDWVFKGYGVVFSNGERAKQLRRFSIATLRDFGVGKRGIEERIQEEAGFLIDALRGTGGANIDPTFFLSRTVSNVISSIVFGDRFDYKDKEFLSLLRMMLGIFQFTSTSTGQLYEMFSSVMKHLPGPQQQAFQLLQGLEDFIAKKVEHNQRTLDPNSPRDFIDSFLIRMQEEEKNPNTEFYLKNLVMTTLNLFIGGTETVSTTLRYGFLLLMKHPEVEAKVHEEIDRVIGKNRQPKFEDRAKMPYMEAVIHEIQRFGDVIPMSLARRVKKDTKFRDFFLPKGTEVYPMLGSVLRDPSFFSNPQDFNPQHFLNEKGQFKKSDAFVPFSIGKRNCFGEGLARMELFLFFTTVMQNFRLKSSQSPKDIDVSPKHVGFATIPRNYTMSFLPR
Protocol: (§1) Inhibition was screened using a cocktail incubation with CYP specific substrates for eight major drug metabolizing CYP enzymes (CYPs 1A2, 2A6, 2B6, 2C8, 2C9, 2C19, 2D6 and 3A4) in incubations with a pool of human liver microsomes. In reversible inhibition, MIN-102 was incubated with buffer, microsomes, cofactor NADPH and CYP-specific substrate cocktail mix for 15 min. In TDI study, buffer and microsomes were preincubated with MIN-102 in the presence and absence of cofactor NADPH for 0 or 30 min to elucidate the possible time-dependency of inhibition. Secondary incubation was conducted with CYP-specific substrate cocktail mix for 30 min. MIN-102 was used at final concentrations of 0.01, 0.1, 1, 10, and 100 μM in both assays.

CYP2C8 = target: T2, CYP2C8 (Homo sapiens, UniProt P10632); experiment: as above; conditions: reaction OH-REPA
T2 construct: in incubations with a pool of human liver microsomes; from tissue; host or cells: pooled human liver microsomes
T2 sequence (P10632 1-490): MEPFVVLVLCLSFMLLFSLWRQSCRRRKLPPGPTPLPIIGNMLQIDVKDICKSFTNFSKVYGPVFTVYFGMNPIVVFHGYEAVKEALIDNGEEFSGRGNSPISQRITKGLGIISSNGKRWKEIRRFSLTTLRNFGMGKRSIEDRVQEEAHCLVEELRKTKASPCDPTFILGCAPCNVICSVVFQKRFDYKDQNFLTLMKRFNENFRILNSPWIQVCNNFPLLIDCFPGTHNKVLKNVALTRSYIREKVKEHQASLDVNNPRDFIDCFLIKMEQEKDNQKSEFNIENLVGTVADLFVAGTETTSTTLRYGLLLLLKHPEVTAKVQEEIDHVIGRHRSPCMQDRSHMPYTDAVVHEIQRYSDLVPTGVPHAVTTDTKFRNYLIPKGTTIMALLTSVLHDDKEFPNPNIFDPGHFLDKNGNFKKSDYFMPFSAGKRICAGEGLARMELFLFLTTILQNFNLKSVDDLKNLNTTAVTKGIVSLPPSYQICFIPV
Protocol: as §1

CYP2D6 = target: T3, CYP2D6 (Homo sapiens, UniProt P10635); experiment: as above; conditions: reaction O-dem-DEX
T3 construct: in incubations with a pool of human liver microsomes; from tissue; host or cells: pooled human liver microsomes
T3 sequence (P10635 whole entry): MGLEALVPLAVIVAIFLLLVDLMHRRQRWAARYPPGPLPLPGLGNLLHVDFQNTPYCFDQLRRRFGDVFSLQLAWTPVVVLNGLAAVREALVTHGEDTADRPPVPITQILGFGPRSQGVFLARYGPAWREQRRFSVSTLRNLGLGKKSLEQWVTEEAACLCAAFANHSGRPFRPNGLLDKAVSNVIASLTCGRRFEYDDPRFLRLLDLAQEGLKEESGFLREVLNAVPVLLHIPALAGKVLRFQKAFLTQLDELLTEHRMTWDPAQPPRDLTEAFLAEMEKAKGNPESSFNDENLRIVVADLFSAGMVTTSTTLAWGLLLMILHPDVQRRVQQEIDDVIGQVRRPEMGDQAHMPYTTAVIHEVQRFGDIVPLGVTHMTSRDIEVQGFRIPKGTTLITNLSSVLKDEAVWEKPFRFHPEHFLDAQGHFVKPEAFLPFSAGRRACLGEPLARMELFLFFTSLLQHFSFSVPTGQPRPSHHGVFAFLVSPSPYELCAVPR
Protocol: as §1

CYP2C19 = target: T4, CYP2C19 (Homo sapiens, UniProt P33261); experiment: as above
T4 construct: in incubations with a pool of human liver microsomes; from tissue; host or cells: pooled human liver microsomes
T4 sequence (P33261 whole entry): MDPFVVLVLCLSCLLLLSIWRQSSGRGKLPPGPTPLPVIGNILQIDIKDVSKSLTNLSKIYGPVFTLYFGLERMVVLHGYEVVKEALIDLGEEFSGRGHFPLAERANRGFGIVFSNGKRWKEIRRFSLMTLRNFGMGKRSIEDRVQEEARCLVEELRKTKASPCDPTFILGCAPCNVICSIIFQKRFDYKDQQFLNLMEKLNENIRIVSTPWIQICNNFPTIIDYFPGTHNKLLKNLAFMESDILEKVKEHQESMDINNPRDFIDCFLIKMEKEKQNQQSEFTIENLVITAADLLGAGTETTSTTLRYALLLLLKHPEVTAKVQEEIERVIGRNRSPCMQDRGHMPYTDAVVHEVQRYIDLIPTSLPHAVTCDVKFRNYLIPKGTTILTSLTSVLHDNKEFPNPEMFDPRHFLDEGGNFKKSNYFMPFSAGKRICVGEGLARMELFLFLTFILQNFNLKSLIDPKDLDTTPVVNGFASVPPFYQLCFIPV
Protocol: as §1

CYP2B6 [1] = target: T5, CYP2B6 (Homo sapiens, UniProt P20813); experiment: as above; conditions: reaction OH-BUP
T5 construct: in incubations with a pool of human liver microsomes; from tissue; host or cells: pooled human liver microsomes
T5 sequence (P20813 1-491): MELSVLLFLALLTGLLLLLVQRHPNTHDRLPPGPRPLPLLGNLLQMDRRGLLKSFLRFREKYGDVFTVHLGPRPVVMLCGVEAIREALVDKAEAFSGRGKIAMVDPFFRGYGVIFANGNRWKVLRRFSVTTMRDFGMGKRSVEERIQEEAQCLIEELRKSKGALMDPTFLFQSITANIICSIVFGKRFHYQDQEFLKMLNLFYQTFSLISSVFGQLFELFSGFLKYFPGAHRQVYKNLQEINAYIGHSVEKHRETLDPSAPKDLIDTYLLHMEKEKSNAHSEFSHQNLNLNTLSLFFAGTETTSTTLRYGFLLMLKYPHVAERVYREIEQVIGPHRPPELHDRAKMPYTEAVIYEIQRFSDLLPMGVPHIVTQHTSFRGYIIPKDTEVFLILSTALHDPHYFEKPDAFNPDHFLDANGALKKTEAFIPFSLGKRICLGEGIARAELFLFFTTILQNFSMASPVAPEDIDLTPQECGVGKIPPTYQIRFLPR
Protocol: as §1

CYP3A4 [2] = target: T6, CYP3A4 (Homo sapiens, UniProt P08684); experiment: as above
T6 construct: in incubations with a pool of human liver microsomes; from tissue; host or cells: pooled human liver microsomes
T6 sequence (P08684 whole entry): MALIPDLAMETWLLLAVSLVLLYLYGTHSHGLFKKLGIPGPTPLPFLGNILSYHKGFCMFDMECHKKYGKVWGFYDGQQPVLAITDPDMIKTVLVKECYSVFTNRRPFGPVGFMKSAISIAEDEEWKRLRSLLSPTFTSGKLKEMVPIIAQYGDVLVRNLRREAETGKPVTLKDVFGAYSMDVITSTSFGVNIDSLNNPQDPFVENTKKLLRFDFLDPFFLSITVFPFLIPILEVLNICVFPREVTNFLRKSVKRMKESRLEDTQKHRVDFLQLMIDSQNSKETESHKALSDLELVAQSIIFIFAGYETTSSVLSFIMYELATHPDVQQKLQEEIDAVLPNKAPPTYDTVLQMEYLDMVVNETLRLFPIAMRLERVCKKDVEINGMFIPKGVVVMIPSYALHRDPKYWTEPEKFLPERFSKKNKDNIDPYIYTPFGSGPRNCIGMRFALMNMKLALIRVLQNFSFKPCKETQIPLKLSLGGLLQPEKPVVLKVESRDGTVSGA
Protocol: as §1

CYP1A2 = target: T7, CYP1A2 (Homo sapiens, UniProt P05177); experiment: as above; conditions: reaction ACET
T7 construct: in incubations with a pool of human liver microsomes; from tissue; host or cells: pooled human liver microsomes
T7 sequence (P05177 1-516): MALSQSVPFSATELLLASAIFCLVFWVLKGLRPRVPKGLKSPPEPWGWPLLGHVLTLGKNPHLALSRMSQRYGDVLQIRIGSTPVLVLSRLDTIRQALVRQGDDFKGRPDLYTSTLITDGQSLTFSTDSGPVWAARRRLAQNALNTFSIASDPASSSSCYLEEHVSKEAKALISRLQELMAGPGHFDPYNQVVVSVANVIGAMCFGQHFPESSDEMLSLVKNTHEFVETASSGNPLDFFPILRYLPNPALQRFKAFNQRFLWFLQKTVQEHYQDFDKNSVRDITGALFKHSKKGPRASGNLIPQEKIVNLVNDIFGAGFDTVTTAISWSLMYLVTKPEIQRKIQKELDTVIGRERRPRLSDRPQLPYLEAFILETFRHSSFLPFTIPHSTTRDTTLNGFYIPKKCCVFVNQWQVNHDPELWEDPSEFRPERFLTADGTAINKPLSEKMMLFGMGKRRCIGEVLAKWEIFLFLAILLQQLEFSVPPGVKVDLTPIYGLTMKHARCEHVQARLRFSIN
Protocol: as §1

CYP2C9 = target: T8, CYP2C9 (Homo sapiens, UniProt P11712); experiment: as above; conditions: reaction OH-DICL
T8 construct: in incubations with a pool of human liver microsomes; from tissue; host or cells: pooled human liver microsomes
T8 sequence (P11712 whole entry): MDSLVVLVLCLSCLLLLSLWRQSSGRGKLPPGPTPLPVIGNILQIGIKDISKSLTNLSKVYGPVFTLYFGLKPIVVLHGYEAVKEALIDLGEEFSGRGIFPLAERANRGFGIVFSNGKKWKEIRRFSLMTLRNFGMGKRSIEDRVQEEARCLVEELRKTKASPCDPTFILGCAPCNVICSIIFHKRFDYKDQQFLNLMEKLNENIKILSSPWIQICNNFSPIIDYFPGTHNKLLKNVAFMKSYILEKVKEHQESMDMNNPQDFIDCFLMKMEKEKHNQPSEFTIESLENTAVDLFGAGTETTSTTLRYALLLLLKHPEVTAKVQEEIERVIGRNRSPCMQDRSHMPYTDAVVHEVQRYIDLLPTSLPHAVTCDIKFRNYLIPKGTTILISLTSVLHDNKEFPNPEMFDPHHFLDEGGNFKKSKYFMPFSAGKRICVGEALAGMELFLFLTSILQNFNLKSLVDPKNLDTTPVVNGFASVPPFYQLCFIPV
Protocol: as §1

CYP3A4 [3] = experiment: CYP induction in cryopreserved human hepatocytes; conditions: 50 μM, hepatocytes from 3 human donors
CYP2B6 [4] = experiment: CYP induction in cryopreserved human hepatocytes; conditions: 50 μM, hepatocytes from 3 human donors

IC50 (CYP2A6): > 100 µM
IC50 (CYP2C8): 102 µM
Ki (CYP2C8; read-out: Tentative Ki): 84 µM
IC50 (CYP2D6): > 100 µM
IC50 (CYP2C19; reaction 5-OH-OME): > 100 µM
IC50 (CYP2C19; reaction dem-OME): > 100 µM
IC50 (CYP2B6 [1]): > 100 µM
IC50 (CYP3A4 [2]; reaction 1-OH-MDZ): > 100 µM
IC50 (CYP3A4 [2]; reaction 3-OH-OME): > 100 µM
IC50 (CYP3A4 [2]; reaction 6β-OH-TES): > 100 µM
IC50 (CYP3A4 [2]; reaction SO-OME): > 100 µM
IC50 (CYP1A2): > 100 µM
IC50 (CYP2C9): 103 µM
Ki (CYP2C9; read-out: Tentative Ki): 52 µM
Compound: CC(O)c1ccc(CCOc2ccc(CC3SC(=O)NC3=O)cc2)nc1 (racemic) [MIN-102, 5-[[4-[2-[5-(1-hydroxyethyl)pyridin-2-yl]ethoxy]phenyl]methyl]-1,3-thiazolidine-2,4-dione]
increase in CYP3A4 mRNA (CYP3A4 [3]): less than 20 % of the respective positive control induction
increase in activity of CYP3A4 probe reaction (CYP3A4 [3]): less than 20 % of the respective positive control induction
increase in activity of CYP2B6 probe reaction (CYP2B6 [4]): less than 20 % of the respective positive control induction
